Data on one compound can be found in US20090053168A1, “TREATMENTS OF B-CELL PROLIFERATIVE DISORDERS” (priority 2007, published 2009).

Test [1] relates to MM.1S cells. Put plainly: Anti-proliferation assay (ATPLite, 72 h), MM.1S.
For test [2], the system named is Farage (non-Hodgkin's B cell lymphoma) cells. As to the kind of experiment: Anti-proliferation assay (ATPLite, 72 h), Farage. The class given is cell-based. The conditions noted are these: x dexamethasone.
The test system of test [3] is GA-10 (Burkitt's lymphoma) cells. Put plainly: Anti-proliferation assay (ATPLite, 72 h), GA-10. Format: cell-based. To be noted: x dexamethasone.
[4] abbreviates: Homo sapiens, MM1.S, read-out: percent inhibition of cell proliferation.

Structures are written as SMILES.

With `NCCNC(=O)Cc1ccc(NC(=O)Cc2ccc(Nc3ncnc4c3ncn4[C@@H]3O[C@H](CO)[C@@H](O)[C@H]3O)cc2)cc1` [ADAC, N-(4-(2-((4-(2-((2-aminoethyl)amino)-2-oxoethyl)phenyl)amino)-2-oxoethyl)phenyl)-Adenosine], the IC50 in test [1] (Homo sapiens, MM1.S, read-out: IC50 (no IL-6)) was 623 nM. For the same compound, in test [1] (setting [4]), the inhibition at 1.17 µM worked out at 80%, the inhibition at 3.51 µM is 75%, the inhibition at 10.5 µM turned out to be 82% and the inhibition at 31.6 µM was determined as 82%. For the same compound, the “activity and synergy in antiproliferation assays” value in test [1] (RPMI-8226, H929, MM.1S and MM.1R MM cell lines) is “active and synergistic”. The synergy score in test [2] worked out at 2.28. Further, the synergy score in test [3] is on record as 2.43.
